{"source": "patent US20080051379A1", "about": "“Compositions and Methods for the Treatment of Peripheral B-Cell Neoplasms” (Trustees of Boston University, priority 2004, published 2008)", "format_in_all_cases": "cell-based, human", "key": {"[1]": {"system": "cAMP levels in B-CLL cells", "experiment": "cAMP RIA, B-CLL cells", "settings": "10 μM rolipram for 30 minutes; six B-CLL patients; p<0.04", "procedure": "Leukemic cells from six B-CLL patients or CCRF-CEM cells were incubated for 30 minutes with media alone (CT), 10 μM rolipram (Roli), 10 μM forskolin (Fsk), 1 μM hydrocortisone (HC), or the same concentration of hydrocortisone combined with rolipram (Roli/HC) or forskolin (Fsk/HC). Lysates of the cells were then assayed for cAMP using a RIA. The cAMP level obtained from each treated B-CLL sample was normalized to that observed in the untreated leukemic cells. The CCRF-CEM data shown are representative of three experiments performed.\n500,000 B-CLL or CCRF-CEM cells were incubated for 30 minutes in one mL media alone or with the addition of drugs. Cells were centrifuged and lysed in 80% ethanol. After vortexing and incubation on ice for 10 minutes, cellular debris was removed by re-centrifugation. The supernatant was dried in a Speedivac and the sample brought up in 250 μL of sample buffer as provided by the makers of a cAMP RIA kit (Amersham). 100 μL of this sample was used for each cAMP assay. The RIA kit was used according to the manufacturer's instructions."}, "[2]": {"system": "PDE4A, PDE4B or PDE4D expression in CCRF-CEM cells", "experiment": "Western analysis of PDE4 isoforms, CCRF-CEM cells", "settings": "rolipram", "procedure": "B-CLL and CCRF-CEM cells were incubated for 18 hours with media alone, 10 μM rolipram, 10 μM forskolin (Fsk), 1 μM hydrocortisone (HC), or the same concentration of rolipram combined with 1 μM hydrocortisone (Roli+HC) or 10 μM forskolin (Roli+Fsk). Lysates of the cells were then assessed for expression of PDE4A, PDE4B or PDE4D by Western analysis. Equal loading of samples was verified by immunoblotting for tubulin.\n30 million B-CLL cells or 10 million CCRF-CEM cells were incubated for 18 hours in media alone or with the addition of drugs as indicated in the text. Western analysis was then carried out as previously described^30."}, "[3]": {"system": "peripheral blood T cells", "experiment": "Hoechst 33342 apoptosis assay, peripheral blood T cells", "settings": "10 μM rolipram", "procedure": "Magnetic bead purified peripheral blood T cells or leukemic cells from patients with B-CLL or Sezary syndrome were cultured in media alone or with a dose titration of hydrocortisone (solid line), followed by assessment for apoptosis by Hoechst 33342 FACS analysis at 48 hours. Using the same experimental conditions, the effect of addition of 10 μM rolipram (thick dashed line) or 10 μM rolipram and 40 μM forskolin (dotted line) was also assessed. The SEM of triplicate samples is shown; where not visible, the SEM was less than 1.0%.\nCCRF-CEM cells were obtained from ATCC^27. Leukemic or normal mononuclear cells were obtained by centrifugation over Histopaque 1077 (Sigma Chemical Company, St. Louis, Mo.). For purification of T cells, whole mononuclear cells from normal subjects were incubated with magnetic beads coated with appropriate antibodies, then positively purified using a magnet (Miltenyi). […]\nHoechst 33342 and DiOC6(3) apoptosis assays were performed as previously described^22,28. […] The absorbance (O.D.) of the formazan product was determined at 492 nm using a plate reader (Titertek Multiscan Plus, Labsystems). Percent cell viability was calculated as follows: (O.D. control sample−O.D. blank)/(O.D. test sample−O.D. blank)×100. […]"}}, "data": [{"smiles": "COc1ccc(C2CNC(=O)C2)cc1OC1CCCC1", "note": "(stereo not shown) [rolipram, 4-(3-cyclopentyloxy-4-methoxyphenyl)-2-pyrrolidone]", "values": [{"measurement": "cAMP levels above that observed in untreated cells", "setting": "[1]", "result": "2.5±0.7", "unit": "fold"}, {"measurement": "induction of PDE4 isoforms", "setting": "[2]", "result": "nor induced any PDE4 isoform"}, {"measurement": "augmentation of the apoptotic effect of 1 μM hydrocortisone on T cells", "setting": "[3]", "result": "failed to augment"}, {"measurement": "induction of apoptosis in peripheral blood T cells", "setting": "[3]", "result": "failed to induce apoptosis"}]}]}
